Experiment [1] concerns canines with ventricular tachypacing (VTP)-induced congestive heart failure (CHF). The experiment is described as follows: Echocardiographic monitoring of the VTP-induced CHF model (LV function, LA area, CHF signs). The class given is in vivo, canine. As to conditions: oral PFD 800 mg three times a day. The source says:
Briefly, 15 adult mongrel canines (weight 20 to 32 kgs) were divided into 3 groups (n=5 in each group) as follows: Group 1: Normal; Group 2: CHF canines not treated with PFD (or CHF); and Group 3: CHF canines treated with PFD (or CHF+PFD). […] The CHF and CHF+PFD canines underwent placement of a permanent single-chamber pacemaker with the pacing lead positioned in the right ventricular apex followed by radiofrequency catheter ablation of the AV junction to create complete heart block. Canines in the CHF and CHF+PFD groups underwent 3 weeks of VTP at a rate of 220 bpm. Oral PFD (800 mg three times a day) (InterMune, Brisbane, Calif.) was started 2 days prior to the initiation of VTP and was given for the full duration of the pacing period. The CHF and CHF+PFD groups underwent transesophageal echocardiography at the time of pacemaker implantation and at follow-up. Canines in the paced groups underwent weekly transthoracic echocardiography, weekly ECG monitoring to ensure right ventricular capture, and weekly physical examinations. CHF was established by clinical signs, such as, lethargy, peripheral edema, and mucous membrane color changes. Left atrial (LA) size was determined by measuring the LA area by planimetry from 2-D echocardiographic images during diastole from the 2-chamber views. Left ventricular (LV) systolic function was determined by measuring LV fractional shortening at the level of the papillary muscle. Two repeated measurements were made for LA area and LV fractional shortening and the mean value was used for analyses.

A further experiment concerns TGF-β1. As to conditions: cited from earlier work.
The test system of experiment [2] is canines with ventricular tachypacing (VTP)-induced congestive heart failure (CHF). Put plainly: AF inducibility in open-chest EP study (single extrastimulus and burst pacing). The class given is in vivo, canine. The source says: Briefly, 15 adult mongrel canines (weight 20 to 32 kgs) were divided into 3 groups (n=5 in each group) as follows: Group 1: Normal; Group 2: CHF canines not treated with PFD (or CHF); and Group 3: CHF canines treated with PFD (or CHF+PFD). […] The CHF and CHF+PFD canines underwent placement of a permanent single-chamber pacemaker with the pacing lead positioned in the right ventricular apex followed by radiofrequency catheter ablation of the AV junction to create complete heart block. Canines in the CHF and CHF+PFD groups underwent 3 weeks of VTP at a rate of 220 bpm. […] Effective refractory periods (ERPs) were measured at 12 atrial sites (6 in LA, 6 in RA) using the single extrastimulus protocol (S1S2) at an 8-beat drive train basic cycle lengths (BCLs) of 200, 300, and 400 ms. During stimulation of the contralateral Bachmann's bundle, conduction velocity (CV) was calculated between pairs of plaque electrodes perpendicular to the activation wavefront with a custom-written software. […] Two measures were derived to quantify conduction heterogeneity: 1) absolute conduction heterogeneity, defined as P95-P5 (P95-5), and 2) conduction heterogeneity index, defined as the absolute conduction heterogeneity normalized by the median phase, or P95-5/P50. […]

The test system of experiment [3] is tissue inhibitor of metalloproteinase (TIMP)-4. Put plainly: Western blot of atrial tissue. In kind it is in vivo, canine. The settings on record: 3 groups.
Another experiment has as its system total p-38. Put plainly: Western blot of atrial tissue. In kind it is in vivo, canine. As to conditions: CHF+PFD vs CHF. The protocol: Expression of MAPks in atrial tissue was evaluated using Western Blot analysis. Briefly, atrial tissue specimen containing an equal amount of total protein (10 μg) was electrophoresed on a 4-20% Tris-glycine gel and then transferred onto a nitrocellulose filter. Non-specific binding sites were blocked with 4% BSA, and the filter was incubated with diluted antibody and a matched secondary antibody (all antibodies were obtained from Chemicon, Temecular, Calif.). Protein bands were analyzed with an enhanced chemiluminescence detection method using horseradish peroxidase, based on the recommendations from the manufacturer (NEN Life Science, Boston, Mass.).

A further experiment relates to IL-6. Put plainly: Western blot of atrial tissue. In kind it is in vivo, canine. As to conditions: 3 groups.
The subject of experiment [4] is matrix metalloproteinase (MMP)-9. The experiment is described as follows: Western blot of atrial tissue. In kind it is in vivo, canine. The settings on record: active form 88 kDa, CHF+PFD vs CHF.

The structures appear in SMILES notation. “Also recorded” adds a separate entry of the source. Like-named read-outs stand apart in the source and are kept apart here.

On to `Cc1ccc(=O)n(-c2ccccc2)c1` [PFD, 5-methyl-1-phenyl-2-(1H)-pyridone], for which the “LV fractional shortening after 3 weeks of VTP compared with baseline” value in experiment [1] (CHF+PFD group, p<0.001 vs baseline) is on record as −69±8%. In addition, in experiment [1] (3 weeks VTP), the “CHF signs, CHF vs CHF+PFD” value is “did not appear to be different”. For the same compound, the “Increase in LA area from baseline at each weekly time point, CHF vs CHF+PFD” value in experiment [1] (3 weeks VTP) was “similar”. Further, in experiment [1] (3 weeks VTP), the “Inter-group baseline and weekly LV fractional shortening, CHF vs CHF+PFD” value is “similar”. Besides, the “Expression of TGF-β1” value in the experiment with TGF-β1 (animal models of lung fibrosis (Iyer et al.)), with TGF-β1 (hepatic fibrosis (Garcia et al.)) and in the experiment with TGF-β1 (renal tubulointerstitial fibrosis (Shihab et al.)) was “significantly reduce” throughout. Also, the “Mean AF duration” value in experiment [2] (CHF+PFD, p<0.009 vs. CHF (1488±698 secs), Normal 16±25 secs) was 12 ± 13 s. Also, in experiment [2] (open-chest experiments, untreated CHF 4/5, p<0.007), the “Sustained AF” value is “only observed in the untreated CHF canines”. Further, the “Expression of TIMP-4” value in experiment [3] is reported as “unchanged; also recorded: not markedly changed”. Besides, in the experiment on total p-38, the “Expression of total p-38” value is “downregulation; also recorded: reduced”. Also, in the experiment on IL-6, the “Expression of IL-6” value is recorded as “unchanged; also recorded: not markedly different”. In experiment [4], the “Expression of MMP-9” value was “downregulation; also recorded: reduced”.

The values are drawn from US20120046321A1, “METHODS OF TREATING ATRIAL FIBRILLATION WITH P38 INHIBITOR COMPOUNDS” (INTERMUNE, INC., priority 2005, published 2012).
